In patent US10815238B2, “Antimicrobial compounds and methods of making and using the same” (BIOVERSYS AG, priority 2013, dated 2020):

Test system: Eschericia coli (E. coli) strain ATCC25922
Assay: Standard microdilution assay, MIC against E. coli ATCC25922
Type: cell-based
Settings: Escherichia coli; E. coli strain ATCC25922, standard microdilution assay; cutoff 16 micrograms/mL; read-out: MIC E. Coli
Outline: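 Scoring as + or − used a 16 micrograms/mL cutoff on minimum inhibitory concentrations. These came from CLSI-standard microdilution, quality-controlled with reference strains tested in the same run.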

Compound	MIC [µg/mL]
C[C@H](N)CCCc1cc(Cl)c(F)c(-c2cc3cn(-c4ccc([C@@H](N)CCN(C(=O)c5ccccc5)c5nccs5)cc4)c(=O)nc3[nH]2)c1 [Compound 161]	> 16
C[C@H](N)CCCc1cc(Cl)c(F)c(-c2cc3cn(-c4ccc(CNCc5nn[nH]n5)cc4)c(=O)nc3[nH]2)c1 [Compound 162]	> 16
C[C@H](N)CCCc1cc(SC(F)(F)F)cc(-c2cc3cn(-c4ccc(CNCc5nn[nH]n5)cc4)c(=O)nc3[nH]2)c1 [Compound 163]	> 16
C[C@H](N)CCCc1cc(Cl)c(F)c(-c2cc3cn(-c4ccc(CNCC#N)cc4)c(=O)nc3[nH]2)c1 [Compound 165]	> 16
CCOC(=N)CNCc1ccc(-n2cc3cc(-c4cc(CCC[C@H](C)N)cc(Cl)c4F)[nH]c3nc2=O)cc1 [Compound 166]	> 16
C[C@H](N)CCCc1cc(Cl)c(F)c(-c2cc3cn(-c4ccc(CNCC(=N)N)cc4)c(=O)nc3[nH]2)c1 [Compound 169]	> 16
C[C@H](N)CCCc1cc(SC(F)(F)F)cc(-c2cc3cn(-c4ccc(CNCC#N)cc4)c(=O)nc3[nH]2)c1 [Compound 170]	> 16
C[C@H](N)CCCc1cc(Cl)c(F)c(-c2cc3cn(-c4ccc(CNCCC(N)C(F)(F)F)cc4)c(=O)nc3[nH]2)c1 (some centres unmarked) [Compound 172]	> 16
C[C@H](N)CCCc1cc(Cl)c(F)c(-c2cc3cn(-c4ccc(CNCC[C@@H](CO)NC(=N)N)cc4)c(=O)nc3[nH]2)c1 [Compound 191]	< 16
C[C@H](N)CCCc1cc(Cl)c(F)c(-c2cc3cn(-c4ccc(CNCC[C@H](N)CO)cc4)c(=O)nc3[nH]2)c1 [Compound 192]	< 16
C[C@H](N)CCCc1cc(Cl)c(F)c(-c2cc3cn(-c4ccc([C@H](C)NCC[C@@H](C)N)cc4)c(=O)nc3[nH]2)c1 [Compound 193]	< 16
C[C@H](N)CCCc1cc(Cl)c(F)c(-c2cc3cn(-c4ccc([C@H](C)NCC[C@@H](C)NC(=N)N)cc4)c(=O)nc3[nH]2)c1 [Compound 194]	< 16
C[C@H](N)CCCc1cc(Cl)c(F)c(-c2cc3cn(-c4ccc(CN[C@@H](C)CCNC(=N)N)cc4)c(=O)nc3[nH]2)c1 [Compound 195]	< 16
C[C@H](N)CCCc1cc(Cl)c(F)c(-c2cc3cn(-c4ccc(CN[C@@H](C)CCN)cc4)c(=O)nc3[nH]2)c1 [Compound 196]	< 16
CC[C@@H](N)CCNCc1ccc(-n2cc3cc(-c4cc(CCC[C@H](C)N)cc(Cl)c4F)[nH]c3nc2=O)cc1 [Compound 197]	< 16
CC[C@H](CCNCc1ccc(-n2cc3cc(-c4cc(CCC[C@H](C)N)cc(Cl)c4F)[nH]c3nc2=O)cc1)NC(=N)N [Compound 198]	< 16
C[C@H](N)CCCc1cc(-c2cc3cn(-c4ccc([C@H](C)NCC[C@@H](C)N)cc4)c(=O)nc3[nH]2)cc(C(F)(F)F)c1 [Compound 199]	< 16
C[C@H](N)CCCc1cc(-c2cc3cn(-c4ccc([C@H](C)NCC[C@@H](C)NC(=N)N)cc4)c(=O)nc3[nH]2)cc(C(F)(F)F)c1 [Compound 200]	< 16
C=CC[C@H](N)CCNCc1ccc(-n2cc3cc(-c4cc(CCC[C@H](C)N)cc(Cl)c4F)[nH]c3nc2=O)cc1 [Compound 201]	< 16
C=CC[C@@H](CCNCc1ccc(-n2cc3cc(-c4cc(CCC[C@H](C)N)cc(Cl)c4F)[nH]c3nc2=O)cc1)NC(=N)N [Compound 202]	< 16
C[C@H](N)CCCc1cc(Cl)c(F)c(-c2cc3cn(-c4ccc(CNCC[C@H](CN)NC(=N)N)cc4)c(=O)nc3[nH]2)c1 [Compound 203]	< 16
C[C@H](N)CCCc1cc(Cl)c(F)c(-c2cc3cn(-c4ccc(CNCC[C@@H]5CN=C(N)N5)cc4)c(=O)nc3[nH]2)c1 [Compound 204]	< 16

The next lines start with the values.

MIC [µg/mL]	Compound
< 16	C[C@H](N)CCCc1cc(-c2cc3cn(-c4ccc([C@H](C)NCCCNC(=N)N)cc4)c(=O)nc3[nH]2)cc([S+]([O-])C(F)(F)F)c1 (some centres unmarked) [Compound 164]
< 16	C[C@H](N)CCCc1cc(Cl)c(F)c(-c2cc3cn(-c4ccc(CNCC[C@@H](N)CO)cc4)c(=O)nc3[nH]2)c1 [Compound 167]
< 16	N=C(N)NCCCN[C@@H](CCF)c1ccc(-n2cc3cc(-c4cc(CCC[C@@H](N)CF)cc(Cl)c4F)[nH]c3nc2=O)cc1 [Compound 168]
< 16	COC[C@H](N)CCCc1cc(Cl)c(F)c(-c2cc3cn(-c4ccc([C@H](C)NCCCNC(=N)N)cc4)c(=O)nc3[nH]2)c1 [Compound 171]
< 16	C=C[C@@H](N)CCNCc1ccc(-n2cc3cc(-c4cc(CCC[C@H](C)N)cc(Cl)c4F)[nH]c3nc2=O)cc1 [Compound 173]
< 16	C[C@H](N)CCCc1cc(Cl)c(F)c(-c2cc3cn(-c4ccc(CNCC[C@@H](NC(=N)N)C5CC5)cc4)c(=O)nc3[nH]2)c1 [Compound 174]
< 16	C[C@H](N)CCCc1cc(Cl)c(F)c(-c2cc3cn(-c4ccc(CNCCC(C)(C)N)cc4)c(=O)nc3[nH]2)c1 [Compound 175]
< 16	C[C@H](N)CCCc1cc(SC(F)(F)F)cc(-c2cc3cn(-c4ccc(CNCCC(C)(C)N)cc4)c(=O)nc3[nH]2)c1 [Compound 176]
< 16	C=C[C@@H](CCNCc1ccc(-n2cc3cc(-c4cc(CCC[C@H](C)N)cc(Cl)c4F)[nH]c3nc2=O)cc1)NC(=N)N [Compound 177]
< 16	COC[C@H](N)CCNCc1ccc(-n2cc3cc(-c4cc(CCC[C@H](C)N)cc(Cl)c4F)[nH]c3nc2=O)cc1 [Compound 178]
< 16	CN[C@H](CCNCc1ccc(-n2cc3cc(-c4cc(CCC[C@H](C)N)cc(Cl)c4F)[nH]c3nc2=O)cc1)COC [Compound 179]
< 16	C=C[C@H](CCNCc1ccc(-n2cc3cc(-c4cc(CCC[C@H](C)N)cc(Cl)c4F)[nH]c3nc2=O)cc1)NC(=N)N [Compound 180]
< 16	C[C@H](N)CCCc1cc(Cl)c(F)c(-c2cc3cn(-c4ccc(CNCC[C@H](CO)NC(=N)N)cc4)c(=O)nc3[nH]2)c1 [Compound 181]
< 16	C[C@H](N)CCCc1cc(Cl)c(F)c(-c2cc3cn(-c4ccc(CNCC[C@@H](N)CN)cc4)c(=O)nc3[nH]2)c1 [Compound 182]
< 16	CC[C@@H](CCNCc1ccc(-n2cc3cc(-c4cc(CCC[C@H](C)N)cc(Cl)c4F)[nH]c3nc2=O)cc1)NC(=N)N [Compound 183]
< 16	C[C@H](N)CCCc1cc(Cl)c(F)c(-c2cc3cn(-c4ccc(CNCC[C@@H](N)CCO)cc4)c(=O)nc3[nH]2)c1 [Compound 184]
< 16	C[C@H](N)CCCc1cc(Cl)c(F)c(-c2cc3cn(-c4ccc(CNCC[C@H](CCO)NC(=N)N)cc4)c(=O)nc3[nH]2)c1 [Compound 185]
< 16	CC(CCNCc1ccc(-n2cc3cc(-c4cc(CCC[C@H](C)N)cc(Cl)c4F)[nH]c3nc2=O)cc1)NC(=N)N (some centres unmarked) [Compound 186]
< 16	C[C@H](N)CCCc1cc(Cl)c(F)c(-c2cc3cn(-c4ccc(CNCC[C@@H](C)N)cc4)c(=O)nc3[nH]2)c1 [Compound 187]
< 16	C[C@H](N)CCCc1cc(Cl)c(F)c(-c2cc3cn(-c4ccc(CNCC[C@@H](C)NC(=N)N)cc4)c(=O)nc3[nH]2)c1 [Compound 188]
< 16	C[C@H](N)CCCc1cc(Cl)c(F)c(-c2cc3cn(-c4ccc(CNCCC5(N)CNC5)cc4)c(=O)nc3[nH]2)c1 [Compound 189]
< 16	C[C@H](N)CCCc1cc(Cl)c(F)c(-c2cc3cn(-c4ccc(CNCCC5(N)CN(C(=N)N)C5)cc4)c(=O)nc3[nH]2)c1 [Compound 190]
